Conditions: not given

In order of rising log10 Koc (L/kg):
1. NC(=O)c1ccccc1  1.46
2. CC(C)N1C(=O)c2ccccc2NS1(=O)=O  1.52
3. Cc1ccc(C(=O)O)cc1  1.77
4. CC(=O)Nc1cccc(Br)c1  2.01
5. Cc1cc(=O)[nH]c(=S)[nH]1  2.14
6. Oc1ccc(Cl)cc1Cl  2.81
7. CCCN(CCCl)c1c([N+](=O)[O-])cc(C(F)(F)F)cc1[N+](=O)[O-]  3.55
8. Nc1c(Cl)c(Cl)cc(Cl)c1Cl  3.94

In order of falling melting point:
1. Nc1ccc([N+](=O)[O-])c2c1C(=O)c1c(Cl)ccc(Cl)c1C2=O  307 °C
2. O=C(O)c1ccc([N+](=O)[O-])cc1  242 °C
3. C[C@H]1C[C@@H]2[C@H]([C@@H](O)C[C@@]3(C)[C@H]2CC[C@]3(O)C(=O)CO)[C@@]2(C)C=CC(=O)C=C12  232 °C
4. O=C1c2ccccc2C(=O)c2c1cccc2[N+](=O)[O-]  232 °C
5. O=C1CNC(=S)N1  230 °C
6. Cc1c(Cl)c(C)c(Cl)c(Cl)c1Cl  223 °C
7. Cc1ncc(CSSCc2cnc(C)c(O)c2CO)c(CO)c1O  219 °C
8. COc1cc(C(=O)O)ccc1O  212 °C
9. C[C@H]1CC(=O)C[C@@H]2CC[C@H]3[C@@H]4CC[C@H](O)[C@@]4(C)CC[C@@H]3[C@]21C  204 °C
10. NC(=S)Nc1cccc2ccccc12  198 °C
11. CC(=O)NC(CCC(N)=O)C(=O)O (configuration not stated)  197 °C
12. Oc1ccc([C@H]2COc3cc(O)ccc3C2)cc1  190 °C
13. C[C@H](CN1CCOCC1)C(C(=O)N1CCCC1)(c1ccccc1)c1ccccc1  182 °C
14. CCN1CCCC1CNC(=O)c1cc(S(=O)(=O)CC)ccc1OC (configuration not stated)  182 °C
15. Cc1ccc(C(=O)O)cc1  180 °C
16. CCc1nc2ccccc2[nH]1  175 °C
17. O=C(O)/C=C/CCCCCCCCC(=O)O  166 °C
18. O=c1ccn([C@@H]2O[C@H](CO)[C@@H](O)[C@@H]2O)c(=O)[nH]1  165 °C
19. NC(=O)c1ccc(O)cc1  162 °C
20. COc1ccccc1C=C(C(=O)O)c1ccccc1  158 °C
21. O=C(O)c1ccccc1Br  150 °C
22. COc1ccc(C(=O)CCC(=O)O)cc1  149 °C
23. O=S(=O)(c1ccc(Cl)cc1)c1ccc(Cl)cc1  148 °C
24. N#Cc1c[nH]cc1-c1cccc(Cl)c1Cl  147 °C
25. O=C(O)CONC(=O)c1ccccc1  140 °C
26. Nc1ccc(C(=O)O)c(N)c1  140 °C
27. O=C(O)CCCCCC1NC(=O)CS1 (configuration not stated)  140 °C
28. CC(C)N1C(=O)c2ccccc2NS1(=O)=O  138 °C
29. CC1(C)C(=O)N(Cl)C(=O)N1Cl  132 °C
30. NC(=O)c1ccccc1  129 °C
31. Cc1ccc2[nH]c(C)c(C)c2c1  122 °C
32. O=C(Oc1cccc2cccnc12)c1ccccc1  119 °C
33. Clc1cc(Cl)c(OCC#CI)cc1Cl  114 °C
34. COc1ccc([N+](=O)[O-])cn1  108 °C
35. Nc1c(Cl)c(Cl)cc(Cl)c1Cl  107 °C
36. CC1=CC(=O)c2ccccc2C1=O  107 °C
37. OC1(c2ccc(Cl)c(C(F)(F)F)c2)CCN(CCCC(c2ccc(F)cc2)c2ccc(F)cc2)CC1  106 °C
38. CCOc1ccc(Cc2nccc3cc(OCC)c(OCC)cc23)cc1OCC  100 °C
39. Nc1ccc(F)c([N+](=O)[O-])c1  97.5 °C
40. CCCCc1ccccn1  97 °C
41. CCN(CC)C(=O)CSc1ccc(Cl)nn1  97 °C
42. ClC1=C(Cl)C2(Cl)C(CBr)CC1(Cl)C2(Cl)Cl (configuration not stated)  77 °C
43. CC(=O)N(C(C)=O)c1ccc(/N=N/c2ccccc2C)cc1C  75 °C
44. O=C(Cl)c1ccc([N+](=O)[O-])cc1  75 °C
45. O=C(OCCOC(=O)c1ccccc1)c1ccccc1  73.5 °C
46. CCCCCCCCCCCCCCCCCCCCCCCCCCCCCCCCCC  72.6 °C
47. O=C(O)Cc1ccco1  68.5 °C
48. CCCCCCc1ccc(O)cc1O  68 °C
49. c1ccc([Se][Se]c2ccccc2)cc1  63.5 °C
50. CCOC(C(=O)c1ccccc1)c1ccccc1 (configuration not stated)  62 °C
51. O=Cc1ccccc1C=O  56.5 °C
52. Cc1ccc(O)cc1Cl  55.5 °C
53. CC(C)(C)C1CCC(=O)CC1  48.5 °C
54. Cc1cc(Cl)nc(Cl)n1  46.5 °C
55. Oc1ccc(Cl)cc1Cl  45 °C
56. COc1cccc(O)c1O  42.8 °C
57. CCCN(CCCl)c1c([N+](=O)[O-])cc(C(F)(F)F)cc1[N+](=O)[O-]  42 °C
58. COC(=O)c1cccc(N)c1  39 °C
59. COc1cccc(-c2cccc(OC)c2)c1  36 °C
60. CC(=O)OC1CCCCC1C(C)(C)C (configuration not stated)  35 °C
61. Cc1ccccc1O  29.8 °C
62. CCCCCCCCCCCCCCCCI  22 °C
63. CNc1ccccn1  15 °C
64. Cc1ccc(-c2cccc(C)c2)cc1  14.5 °C
65. Fc1c(F)c(F)c(Br)c(Br)c1F  12 °C
66. CN1CCN(C)C1=O  8.2 °C
67. CCCCCC#CC(=O)O  4 °C
68. Cc1c(N)cccc1Cl  1 °C
69. CCc1cccc(O)c1  -4 °C
70. ClC(Cl)(Cl)I  -7.8 °C
71. C=Cc1ccc(C(C)C)cc1  -44.7 °C
72. c1ccc2c(c1)CCC2  -51.4 °C
73. Cc1ccccn1  -66.7 °C
74. CC(=O)OC(C)C  -73.4 °C
75. C=C(C)CCCCCC  -77.8 °C
76. CCCCC(C)CC (configuration not stated)  -100 °C
77. O=C(C(F)(F)F)C(F)(F)Cl  -133 °C

In order of rising boiling point:
1. O=C(C(F)(F)F)C(F)(F)Cl  8 °C
2. Clc1ccoc1  80 °C
3. CC(=O)OC(C)C  88.6 °C
4. CCC(C)(C)S  99.1 °C
5. CC=CC(C)(C)O  112 °C
6. FC(F)(F)c1ccc(C(F)(F)F)cc1  116 °C
7. CCCCC(C)CC (configuration not stated)  118 °C
8. C=CC(C)C(C)O (configuration not stated)  126 °C
9. Cc1ccccn1  129 °C
10. CC(C)CC(C)(C)O  133 °C
11. C=CC(O)CCC (configuration not stated)  134 °C
12. ClC(Cl)(Cl)I  142 °C
13. C=C(C)CCCCCC  145 °C
14. COC1CCC(OC)O1 (configuration not stated)  146 °C
15. CCC(C)CCC(C)(C)C (configuration not stated)  151 °C
16. COC(C)CC(OC)OC (configuration not stated)  157 °C
17. CC(Cl)C(Cl)(Cl)C=O (configuration not stated)  164 °C
18. c1ccc2c(c1)CCC2  178 °C
19. N#CSCCl  185 °C
20. CC1CC(=O)CC(C)(C)C1 (configuration not stated)  189 °C
21. Cc1ccccc1O  191 °C
22. CCCCc1ccccn1  192 °C
23. Fc1c(F)c(F)c(Br)c(Br)c1F  198 °C
24. CNc1ccccn1  200 °C
25. C=Cc1ccc(C(C)C)cc1  204 °C
26. Oc1ccc(Cl)cc1Cl  210 °C
27. CCOC(=O)c1cccs1  218 °C
28. CCc1cccc(O)c1  218 °C
29. Cc1cc(Cl)nc(Cl)n1  219 °C
30. CN1CCN(C)C1=O  221 °C
31. Cc1ccc(O)cc1Cl  228 °C
32. Cc1c(N)cccc1Cl  245 °C
33. Cc1ccc(-c2cccc(C)c2)cc1  289 °C
34. NC(=O)c1ccccc1  290 °C
35. Cc1ccc2[nH]c(C)c(C)c2c1  297 °C
36. O=C(O)CCCC(=O)O  303 °C
37. COc1cccc(-c2cccc(OC)c2)c1  328 °C
38. CCCCCCc1ccc(O)cc1O  334 °C
39. CCCCCCCCCCCCCCCCCCCCCCCCCCCCCCCCCC  483 °C

In order of falling log10 vapour pressure (mmHg):
1. O=C(C(F)(F)F)C(F)(F)Cl  3.15
2. CC(=O)OC(C)C  1.78
3. CCC(C)(C)S  1.68
4. CCCCC(C)CC (configuration not stated)  1.29
5. Cc1ccccn1  1.05
6. c1ccc2c(c1)CCC2  0.166
7. Cc1ccccc1O  -0.524
8. Oc1ccc(Cl)cc1Cl  -1.05
9. CCc1cccc(O)c1  -1.3
10. CC(O)COCc1c(Cl)ccc(Cl)c1Cl (configuration not stated)  -4
11. Cc1ccc(C(=O)O)cc1  -4.29
12. CCCN(CCCl)c1c([N+](=O)[O-])cc(C(F)(F)F)cc1[N+](=O)[O-]  -4.52
13. CCCCCCCCCCCCCCCCI  -4.78
14. O=C(O)CCCC(=O)O  -5.54
15. N#Cc1c[nH]cc1-c1cccc(Cl)c1Cl  -7.08
16. CCOc1ccc([Si](C)(C)CCCc2ccc(F)c(Oc3ccccc3)c2)cc1  -7.73
17. O=C1c2ccccc2C(=O)c2c1cccc2[N+](=O)[O-]  -8.4
18. Nc1ccc([N+](=O)[O-])c2c1C(=O)c1c(Cl)ccc(Cl)c1C2=O  -12.4

With `Oc1ccc(Cl)cc1Cl` the ready biodegradability was “not readily biodegradable”.
In the case of `c1cc(N(CC2CO2)CC2CO2)ccc1Cc1ccc(N(CC2CO2)CC2CO2)cc1` (configuration not stated), the ready biodegradability is reported as “not readily biodegradable”.
With `CC(C)C1NC(=O)NC1=O` (configuration not stated) the ready biodegradability was “not readily biodegradable”.
With `CCCCCCCCCCCCCCCCCCCCCCCCCCCCCCCCCC` the ready biodegradability was “readily biodegradable”.
In the case of `O=S(=O)(c1ccc(Cl)cc1)c1ccc(Cl)cc1`, the ready biodegradability is reported as “not readily biodegradable”.
With `Cc1ccccn1` the ready biodegradability was “readily biodegradable”.
In the case of `Cc1ccc(C(=O)O)cc1`, the ready biodegradability is reported as “readily biodegradable”.
For `O=C(O)c1ccc([N+](=O)[O-])cc1`, the ready biodegradability was “readily biodegradable”.
For `CC1CC(=O)CC(C)(C)C1` (configuration not stated), the ready biodegradability was “not readily biodegradable”.
In the case of `Cc1ccccc1O`, the ready biodegradability is reported as “readily biodegradable”.
With `CCN(CC)C(=O)CSc1ccc(Cl)nn1` the ready biodegradability was “not readily biodegradable”.
For `O=C(Oc1cccc2cccnc12)c1ccccc1`, the ready biodegradability was “readily biodegradable”.
For `COc1cc(C(=O)O)ccc1O`, the ready biodegradability was “readily biodegradable”.
For `CC(=O)OC(C)C`, the ready biodegradability was “readily biodegradable”.
For `CCc1cccc(O)c1`, the ready biodegradability was “readily biodegradable”.
With `CC(C)Nc1ccc(NC(C)C)c2c1C(=O)c1ccccc1C2=O` the ready biodegradability was “not readily biodegradable”.
With `Cc1ccc(O)cc1Cl` the ready biodegradability was “not readily biodegradable”.

In order of rising log10 biodegradation half-life (days):
1. CCCCC(C)CC (configuration not stated)  0.477
2. c1ccc2c(c1)CCC2  0.778
3. CCC(C)C(C)(C)C (configuration not stated)  0.845
4. CCCCCCCCCCCCCCCCCCCCCCCCCCCCCCCCCC  2.58

In order of rising log10 Henry constant (atm·m³/mol):
1. NC(=O)c1ccccc1  -9.61
2. CCc1cccc(O)c1  -6.2
3. Cc1ccccc1O  -5.92
4. Cc1ccccn1  -5
5. c1ccc2c(c1)CCC2  -3.7
6. CC(=O)OC(C)C  -3.56

In order of falling log10 Koa:
1. Clc1cc(Cl)c(-c2c(Cl)c(Cl)cc(Cl)c2Cl)cc1Cl  9.87
2. CC(=O)OC(C)C  2.93

Same assay, conditions: fish

In order of rising log10 BCF:
1. CC1CCC(C(=O)O)C(C(=O)O)C1 (configuration not stated)  0.38
2. Nc1ccc(S(=O)(=O)[O][Na])c2ccccc12  0.78
3. Cc1ccccc1O  1.03
4. Oc1ccc(Cl)cc1Cl  1.53
5. Nc1c(Cl)c(Cl)cc(Cl)c1Cl  2.52
6. Clc1cc(-c2cc(Cl)c(Cl)c(Cl)c2)cc(Cl)c1Cl  5.97

In order of rising log10 biotransformation half-life (days):
1. Oc1ccc(Cl)cc1Cl  -0.94
2. Cc1ccccc1O  -0.52
3. CCCCCc1ccc(-c2ccccc2)cc1  0.03
4. C=C(CCCC)CCCCCCCC  0.88
5. Clc1cc(Cl)c(-c2c(Cl)c(Cl)cc(Cl)c2Cl)cc1Cl  2.45
